The source of these data is paper PMC2804074 (Journal of medicinal chemistry, 2010).

Data set [1] has as its target T1, p38 (Homo sapiens, UniProt Q16539). The data set can be described thus: biochemical.
Data set [2] concerns c-jun phosphorylation in INS-1 β-pancreatic cells. It is filed as cell-based, rat. As to conditions: for decrease in potency (shift) for c-jun phosphorylation cell-based assay compared to JNK1 biochemical IC50: cell-based versus JNK1 biochemical.
Data set [3] in a line: Microsomal stability, mouse. As to conditions: 2 mg/mL mouse liver microsomes, 1 μM compound. It is filed as in vitro ADME. A general note: Liver microsomes are vesicles of endoplasmic reticulum, rich in cytochrome P450 enzymes.
Data set [4] in a line: Microsomal stability, rat. Format: in vitro ADME. The following applies: 2 mg/mL rat liver microsomes, 1 μM compound.
Data set [5] in a line: Microsomal stability, human. Format: in vitro ADME. As to conditions: 2 mg/mL human liver microsomes, 1 μM compound.
A further data set concerns the target JNK3 (Homo sapiens, UniProt P53779).
The target of a further data set is JNK1 (Homo sapiens, UniProt P45983). As to the kind of experiment: Homogeneous time resolved fluorescence biochemical assay, JNK1.
Chain of JNK1 (P45983 whole entry): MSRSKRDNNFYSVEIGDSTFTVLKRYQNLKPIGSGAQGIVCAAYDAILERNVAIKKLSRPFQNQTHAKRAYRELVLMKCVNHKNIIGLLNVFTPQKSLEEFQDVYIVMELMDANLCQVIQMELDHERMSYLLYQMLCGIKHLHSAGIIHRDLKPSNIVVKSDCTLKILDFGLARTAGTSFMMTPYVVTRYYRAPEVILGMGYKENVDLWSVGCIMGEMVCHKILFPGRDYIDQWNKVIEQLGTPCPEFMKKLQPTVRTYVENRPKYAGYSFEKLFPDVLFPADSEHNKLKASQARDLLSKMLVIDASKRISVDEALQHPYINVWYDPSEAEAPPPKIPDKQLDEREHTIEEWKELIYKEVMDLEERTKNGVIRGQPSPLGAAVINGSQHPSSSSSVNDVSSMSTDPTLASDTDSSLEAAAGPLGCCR
For data set [6], the target named is T1, p38. The following applies: JNK versus p38.
A further data set concerns the target CYP2C9 (Homo sapiens, UniProt P11712). The data set can be described thus: P450 inhibition, tolbutamide hydroxylation. The following applies: probe tolbutamide. Format: in vitro ADME.
Another data set has as its target CYP2D6 (Homo sapiens, UniProt P10635). As to the kind of experiment: P450 inhibition, bufuralol hydroxylation. Format: in vitro ADME. As to conditions: probe bufuralol.
The target in a further data set is CYP3A4 (Homo sapiens, UniProt P08684). As to the kind of experiment: P450 inhibition, midazolam hydroxylation. It is filed as in vitro ADME. As to conditions: probe midazolam.
Chain of CYP3A4 (P08684 whole entry): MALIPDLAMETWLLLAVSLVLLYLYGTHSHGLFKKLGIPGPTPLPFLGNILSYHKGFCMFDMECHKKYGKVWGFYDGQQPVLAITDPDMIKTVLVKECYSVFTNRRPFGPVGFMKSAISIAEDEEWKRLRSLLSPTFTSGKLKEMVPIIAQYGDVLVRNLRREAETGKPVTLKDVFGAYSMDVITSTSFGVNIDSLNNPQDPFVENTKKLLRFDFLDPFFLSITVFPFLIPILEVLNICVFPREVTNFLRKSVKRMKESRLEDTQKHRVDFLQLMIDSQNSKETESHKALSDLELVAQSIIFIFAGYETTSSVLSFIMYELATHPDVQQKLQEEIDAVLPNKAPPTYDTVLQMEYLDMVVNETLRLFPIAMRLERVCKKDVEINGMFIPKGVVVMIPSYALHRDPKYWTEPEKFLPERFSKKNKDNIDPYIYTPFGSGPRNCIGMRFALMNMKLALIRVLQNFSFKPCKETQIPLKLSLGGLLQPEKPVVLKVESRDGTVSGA
The target of another data set is T2, CYP1A2 (Homo sapiens, UniProt P05177).
T2 sequence (P05177 1-516): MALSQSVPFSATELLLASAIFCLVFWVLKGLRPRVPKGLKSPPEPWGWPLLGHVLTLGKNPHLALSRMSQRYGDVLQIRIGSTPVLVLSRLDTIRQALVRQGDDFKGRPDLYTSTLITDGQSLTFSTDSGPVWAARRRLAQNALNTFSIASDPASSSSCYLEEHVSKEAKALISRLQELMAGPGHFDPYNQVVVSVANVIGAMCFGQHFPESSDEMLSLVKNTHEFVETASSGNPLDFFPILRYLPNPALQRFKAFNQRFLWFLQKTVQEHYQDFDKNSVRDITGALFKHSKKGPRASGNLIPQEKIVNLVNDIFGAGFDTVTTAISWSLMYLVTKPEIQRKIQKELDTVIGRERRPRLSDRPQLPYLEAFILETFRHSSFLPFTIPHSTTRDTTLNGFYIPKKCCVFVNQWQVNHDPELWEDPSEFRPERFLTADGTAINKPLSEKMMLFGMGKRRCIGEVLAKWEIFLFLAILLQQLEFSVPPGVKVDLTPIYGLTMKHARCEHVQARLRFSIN
The data set can be described thus: P450 inhibition, phenaceten demethylation. As to conditions: probe phenaceten. Format: in vitro ADME.

Another data set relates to panel of 400 kinases. As to the kind of experiment: Broad counterscreening against a panel of 400 kinases. Format: biochemical. The following applies: 3 μM; out of 400 kinases. A general note: Counterscreens check selectivity or assay interference.
For the next data set, the target named is T3, MKK7 (Homo sapiens, UniProt O14733).
T3 sequence (O14733 1-419): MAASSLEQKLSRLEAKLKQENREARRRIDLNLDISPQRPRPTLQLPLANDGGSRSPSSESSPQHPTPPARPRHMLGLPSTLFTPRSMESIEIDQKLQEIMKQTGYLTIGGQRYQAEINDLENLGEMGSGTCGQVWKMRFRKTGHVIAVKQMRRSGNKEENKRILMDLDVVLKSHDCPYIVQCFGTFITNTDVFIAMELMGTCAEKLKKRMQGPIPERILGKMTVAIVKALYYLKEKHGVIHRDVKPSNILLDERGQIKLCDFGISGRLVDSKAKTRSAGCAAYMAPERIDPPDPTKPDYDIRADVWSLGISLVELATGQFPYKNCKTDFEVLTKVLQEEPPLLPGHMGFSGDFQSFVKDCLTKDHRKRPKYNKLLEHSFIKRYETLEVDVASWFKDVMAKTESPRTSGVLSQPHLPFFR
The data set can be described thus: Kinase counterscreen, MKK7. Format: biochemical. As to conditions: 3 μM.

In a further data set the target is T4, MKK4 (Homo sapiens, UniProt P45985).
T4 sequence (P45985 1-399): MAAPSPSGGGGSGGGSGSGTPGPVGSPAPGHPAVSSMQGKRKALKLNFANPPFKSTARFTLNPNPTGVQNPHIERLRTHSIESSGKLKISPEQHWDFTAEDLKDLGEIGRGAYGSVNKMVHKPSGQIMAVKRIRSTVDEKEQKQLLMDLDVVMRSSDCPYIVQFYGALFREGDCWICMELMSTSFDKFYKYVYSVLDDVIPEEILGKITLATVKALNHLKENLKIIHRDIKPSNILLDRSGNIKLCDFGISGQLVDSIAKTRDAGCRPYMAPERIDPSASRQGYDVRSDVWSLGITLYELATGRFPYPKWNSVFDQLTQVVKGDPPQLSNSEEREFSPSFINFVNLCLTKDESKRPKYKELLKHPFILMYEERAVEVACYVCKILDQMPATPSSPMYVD
The data set can be described thus: Kinase counterscreen, MKK4. As to conditions: 3 μM. Format: biochemical.

The test system of the next data set is MLK1-3. The data set can be described thus: Kinase counterscreen, MLK1-3. As to conditions: 3 μM. Format: biochemical.
For the next data set, the system named is MAPK3K1-4. As to the kind of experiment: Kinase counterscreen, MAPK3K1-4. It is filed as biochemical. As to conditions: 3 μM.
The target in the next data set is T5, ASK-1 (Homo sapiens, UniProt Q99683).
T5 sequence (Q99683 1-1374): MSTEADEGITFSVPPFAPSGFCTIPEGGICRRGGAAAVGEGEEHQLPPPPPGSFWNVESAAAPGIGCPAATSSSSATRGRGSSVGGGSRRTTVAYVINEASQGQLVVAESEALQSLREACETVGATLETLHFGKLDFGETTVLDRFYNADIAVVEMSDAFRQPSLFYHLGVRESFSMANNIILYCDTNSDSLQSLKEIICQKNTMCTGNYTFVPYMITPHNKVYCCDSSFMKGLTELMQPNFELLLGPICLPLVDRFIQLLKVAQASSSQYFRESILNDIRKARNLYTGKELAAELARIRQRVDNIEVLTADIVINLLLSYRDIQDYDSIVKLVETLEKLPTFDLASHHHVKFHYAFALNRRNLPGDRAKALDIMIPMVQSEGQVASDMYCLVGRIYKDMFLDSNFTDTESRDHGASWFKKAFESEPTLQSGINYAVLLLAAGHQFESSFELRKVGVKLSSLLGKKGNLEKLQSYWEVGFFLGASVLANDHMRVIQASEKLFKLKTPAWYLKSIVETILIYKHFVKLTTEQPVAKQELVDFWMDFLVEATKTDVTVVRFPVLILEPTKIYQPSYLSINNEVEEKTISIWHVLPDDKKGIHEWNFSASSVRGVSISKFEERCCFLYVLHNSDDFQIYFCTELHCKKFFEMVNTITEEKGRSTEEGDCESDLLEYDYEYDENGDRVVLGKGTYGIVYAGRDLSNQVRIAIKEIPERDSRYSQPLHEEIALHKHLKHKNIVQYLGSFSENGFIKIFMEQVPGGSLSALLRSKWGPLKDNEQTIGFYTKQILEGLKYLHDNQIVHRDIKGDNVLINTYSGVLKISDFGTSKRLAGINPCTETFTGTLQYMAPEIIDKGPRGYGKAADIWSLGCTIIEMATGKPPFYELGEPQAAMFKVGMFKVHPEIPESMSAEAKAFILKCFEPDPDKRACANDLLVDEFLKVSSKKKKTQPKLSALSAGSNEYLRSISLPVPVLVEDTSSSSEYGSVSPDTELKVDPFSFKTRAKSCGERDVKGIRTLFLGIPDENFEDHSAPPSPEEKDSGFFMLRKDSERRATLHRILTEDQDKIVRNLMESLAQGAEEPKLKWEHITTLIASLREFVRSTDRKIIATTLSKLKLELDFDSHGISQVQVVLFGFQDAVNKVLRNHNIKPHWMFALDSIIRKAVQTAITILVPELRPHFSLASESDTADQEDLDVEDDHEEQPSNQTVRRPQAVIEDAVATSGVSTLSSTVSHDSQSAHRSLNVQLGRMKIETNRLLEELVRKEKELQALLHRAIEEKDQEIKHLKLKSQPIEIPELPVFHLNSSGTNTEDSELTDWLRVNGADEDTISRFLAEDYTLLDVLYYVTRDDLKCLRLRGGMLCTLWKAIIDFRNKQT
As to the kind of experiment: Kinase counterscreen, ASK-1. It is filed as biochemical. As to conditions: 3 μM.

In data set [7] the test system is inteleukine-2 (IL-2) release in Jurkat cells. The following applies: 10 μM compound; cited from earlier work.
Data set [8] has as its system transient global ischemia. As to conditions: gerbils; i.p. doses ≥ 60 mg/kg; cited from earlier work.

Chain of CYP2C9 (P11712 whole entry): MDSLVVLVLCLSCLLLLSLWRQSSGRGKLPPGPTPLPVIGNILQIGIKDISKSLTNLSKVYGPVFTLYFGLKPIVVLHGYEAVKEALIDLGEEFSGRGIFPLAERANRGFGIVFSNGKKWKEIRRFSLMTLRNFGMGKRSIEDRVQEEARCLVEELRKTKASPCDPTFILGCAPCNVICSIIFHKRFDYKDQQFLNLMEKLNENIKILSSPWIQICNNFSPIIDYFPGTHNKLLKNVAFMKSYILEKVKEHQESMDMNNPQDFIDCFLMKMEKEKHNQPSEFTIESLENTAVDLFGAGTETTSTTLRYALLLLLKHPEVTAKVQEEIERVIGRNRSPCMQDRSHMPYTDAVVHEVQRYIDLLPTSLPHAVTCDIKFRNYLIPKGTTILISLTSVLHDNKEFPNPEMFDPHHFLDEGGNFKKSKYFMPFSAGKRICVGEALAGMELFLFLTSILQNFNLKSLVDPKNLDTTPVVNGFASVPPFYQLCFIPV
Chain of CYP2D6 (P10635 whole entry): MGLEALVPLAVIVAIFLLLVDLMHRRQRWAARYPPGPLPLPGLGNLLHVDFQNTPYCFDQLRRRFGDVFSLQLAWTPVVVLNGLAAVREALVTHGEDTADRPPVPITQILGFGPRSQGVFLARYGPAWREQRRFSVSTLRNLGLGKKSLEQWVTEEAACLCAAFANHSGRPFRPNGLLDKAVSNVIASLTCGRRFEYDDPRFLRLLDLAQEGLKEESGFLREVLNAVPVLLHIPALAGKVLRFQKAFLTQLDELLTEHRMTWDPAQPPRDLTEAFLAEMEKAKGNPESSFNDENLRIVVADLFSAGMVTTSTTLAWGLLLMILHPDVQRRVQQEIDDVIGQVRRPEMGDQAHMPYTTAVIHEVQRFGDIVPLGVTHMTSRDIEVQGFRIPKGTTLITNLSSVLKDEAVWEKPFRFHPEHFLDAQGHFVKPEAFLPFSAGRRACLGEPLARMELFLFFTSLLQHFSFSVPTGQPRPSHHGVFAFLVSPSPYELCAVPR
T1 sequence (Q16539 whole entry): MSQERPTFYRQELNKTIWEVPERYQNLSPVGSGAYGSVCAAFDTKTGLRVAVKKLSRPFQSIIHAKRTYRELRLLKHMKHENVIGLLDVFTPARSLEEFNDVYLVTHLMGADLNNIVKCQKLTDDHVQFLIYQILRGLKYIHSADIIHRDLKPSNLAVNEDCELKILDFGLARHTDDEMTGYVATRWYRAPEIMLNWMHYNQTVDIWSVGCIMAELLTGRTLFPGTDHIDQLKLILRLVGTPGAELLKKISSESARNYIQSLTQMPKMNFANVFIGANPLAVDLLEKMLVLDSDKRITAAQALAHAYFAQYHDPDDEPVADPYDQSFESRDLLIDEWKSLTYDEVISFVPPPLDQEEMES
Chain of JNK3 (P53779 1-422 isoform P53779-2): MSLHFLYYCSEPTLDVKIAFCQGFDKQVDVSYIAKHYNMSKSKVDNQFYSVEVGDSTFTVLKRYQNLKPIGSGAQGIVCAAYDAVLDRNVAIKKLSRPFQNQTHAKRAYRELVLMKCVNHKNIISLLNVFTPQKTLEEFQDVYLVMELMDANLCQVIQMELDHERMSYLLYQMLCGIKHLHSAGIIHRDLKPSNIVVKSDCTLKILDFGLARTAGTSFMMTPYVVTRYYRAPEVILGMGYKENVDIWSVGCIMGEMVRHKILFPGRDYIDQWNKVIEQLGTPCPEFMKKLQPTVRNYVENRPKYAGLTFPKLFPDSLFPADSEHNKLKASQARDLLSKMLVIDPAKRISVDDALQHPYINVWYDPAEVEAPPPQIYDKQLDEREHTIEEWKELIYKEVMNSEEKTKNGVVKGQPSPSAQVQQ

The term IC50 denotes the concentration needed to halve the response being measured. At p38 [1], `NC(=O)c1ccc(Nc2nccc(-c3ccccc3)n2)cc1` [Compound 9a] returned an IC50 of over 20 µM.
Same read-out and setting: in the case of `c1cc(-c2ccnc(Nc3ccc(-n4ccnn4)cc3)n2)cc(N2CCOCC2)c1` [Compound 9c] it was over 20 µM.
For `CS(=O)(=O)Nc1ccc(-c2ccnc(Nc3ccc(-n4ccnn4)cc3)n2)cc1` [Compound 9e], in [2], the “decrease in potency (shift) for c-jun phosphorylation cell-based assay compared to JNK1 biochemical IC50” value (“decrease in potency (shift)” below) was determined as 13 fold. In addition, in [3], the “Microsomal Stability (half life), mouse” value is “poor microsomal stability”. Also, in data set [4], the “Microsomal Stability (half life), rat” value is “poor microsomal stability”. Further, the “Microsomal Stability (half life), human” value in data set [5] was “poor microsomal stability”. Besides, the “fold more potent versus JNK3 than compound 9c” value at JNK3 (compared to 9c) is 91 fold. The molecule also had an IC50 on p38 [1] of over 20 µM.
Consider `Cc1ncn(-c2ccc(Nc3nccc(-c4cc(C#N)cc(N5CCOCC5)c4)n3)cc2)n1` [Compound 9g], for which, on JNK1 (compared to 9f), the “increase in potency for JNK1 inhibition compared to 9f” value is “approximately 5 fold”. The “decrease in potency (shift)” value in data set [2] is given as “essentially equipotent”. Besides, the “increase in potency for JNK3 inhibition compared to 9f” value at JNK3 (compared to 9f) is “approximately 5 fold”. Also, the “selectivity over p38” value at p38 [6] is listed as “greater than 135 fold”. This molecule also gave a half-inhibitory concentration (IC50) on p38 [1] of over 20 µM.
Consider `c1cncc(-c2ncn(-c3ccc(Nc4nccc(-c5cccc(N6CCOCC6)c5)n4)cc3)n2)c1` [Compound 9i, 4-(3-Morpholinophenyl)-N-(4-(3-(pyridin-3-yl)-1H-1,2,4-triazol-1-yl)phenyl)pyrimidin-2-amine], for which the IC50 against p38 [1] is over 20 µM.
As a reminder, the inhibition is the percentage by which the read-out fell short of the control. The low end stands for a response near the control, the high end for a response far below the control. Consider `Cn1nnc(-c2ccc(Nc3nccc(-c4cc(C#N)cc(N5CCOCC5)c4)n3)cc2)n1` [Compound 9h, 3-(2-(4-(2-methyl-2H-tetrazol-5-yl)phenylamino)pyrimidin-4-yl)-5-morpholinobenzonitrile], for which, on JNK1 (compared to 9g), the “difference in IC50 for JNK1 compared to 9g” value is “less than 2 fold”. Besides, the “difference in IC50 for c-jun phosphorylation compared to 9g” value in data set [2] (compared to 9g) was “less than 2 fold”. The inhibition at 15 min, 10 µM at CYP2C9, against CYP2D6, against CYP3A4 and against CYP1A2 was at most 15% throughout. Further, the IC50 at p38 [1] is over 20 µM.
Consider `Cc1ncn(-c2ccc(Nc3nccc(-c4cccc(N5CCOCC5)c4)n3)cc2)n1` [Compound 9f], for which the inhibition at 15 min, 10 µM against CYP2C9, on CYP2D6, on CYP3A4 and on CYP1A2 was under 50% throughout. On p38 [1], this molecule had an IC50 of over 20 µM.
Take `N#Cc1cc(-c2ccnc(Nc3ccc(-n4cnc(-c5ccccn5)n4)cc3)n2)cc(N2CCOCC2)c1` [Compound 9j, 3-Morpholino-5-(2-(4-(3-(pyridin-2-yl)-1H-1,2,4-triazol-1-yl)phenylamino)pyrimidin-4-yl)benzonitrile]: the inhibition at 15 min, 10 µM at CYP2C9, against CYP2D6, against CYP3A4 and against CYP1A2 was at most 33% in each case. The molecule also gave an IC50 on p38 [1] of over 20 µM.
For `CN1CCN(c2ncn(-c3ccc(Nc4nccc(-c5cc(F)cc(N6CCOCC6)c5)n4)cc3)n2)CC1` [Compound 9k], the “decrease in potency (shift)” value in data set [2] is “essentially equipotent”. Moreover, on p38 [1], the IC50 is over 20 µM.
With `CS(=O)(=O)Nc1ccc(-c2ccnc(Nc3ccc(S(N)(=O)=O)cc3)n2)cc1` [Compound 9d], the concentration for half-maximal inhibition (IC50) against p38 [1] was over 20 µM.
`Fc1cc(-c2cc[nH]/c(=N/c3ccc(-n4cnc(N5CCOCC5)n4)cc3)n2)cc(N2CCOCC2)c1` [Compound 9l]: the IC50 in data set [2] (read-out: cell-based IC50, inhibition of c-jun phosphorylation) is about 0.05 µM; on p38 [1], over 20 µM. Besides, the inhibition at 15 min, 10 µM at CYP2C9, on CYP3A4 and against CYP1A2 was 70 to 90% each time. Also, the “number of kinases showing > 25% inhibition” value with panel of 400 kinases is given as 28. In addition, the “number of kinases showing greater than 70% biochemical inhibition” value with panel of 400 kinases is “eleven”. Further, the “inhibition of MKK7” value against MKK7 is on record as “no inhibition”. The “inhibition of MKK4” value against MKK4 is reported as “no inhibition”. The “inhibition of MLK1-3” value in the data set with MLK1-3 is on record as “no inhibition”. Moreover, in the data set with MAPK3K1-4, the “inhibition of MAPK3K1-4” value was “no inhibition”. For the same molecule, at ASK-1, the “inhibition of ASK-1” value is recorded as “no inhibition”.
For the molecule “1,3-benzothiazol-2-yl (2-[[2-(3-pyridinyl) ethyl] amino]-4 pyrimidinyl) acetonitrile [AS601245]”, the “inhibition of IL-2 release in Jurkat cells” value in [7] is reported as 90%. In addition, the “efficacy in transient global ischemia models” value in [8] is “efficacious”.
